Assay results taken from patent US9109041B2, “Analog compounds of analgesic peptides derived from the venom of crotalus durissus terrificus snakes, their uses, compositions, methods of preparation and purification” (priority 2004, dated 2015).

Key:
[1] = system: spontaneous pain induced by the Walker 256 tumor; assay: spontaneous pain induced by the Walker 256 tumor (lifting, licking); format: in vivo, rat; conditions: 6 μg/kg p.o.
Text: The Walker 256 tumor cells were kindly provided by Prof. Dr. Rui Curi, of the Physiology and Biophysics Department of the Biomedical Science Institute of the University of São Paulo. The tumor-bearing animal was sacrificed and the tumoral tissue was removed, placed on a Petri dish containing 0.9% saline. Then, the tumor was cut in smaller parts, and transferred into a beaker containing saline. The material was triturated with a fine-cut, until the tumor is totally fragmented. Then, this material was filtered in gauze and the liquid collected in a beaker. All procedures were performed on ice. The material of the beaker was transferred to 50 ml plastic tubes and centrifuged at 4° C., for 10 minutes, at 1200 rpm. After centrifugation, the supernatant was rejected and the precipitate resuspended in saline 0.9%. For cell counts, the suspension of cells was diluted (1:100) in saline. An aliquot (200 μl) was removed and placed in a test tube containing 200 μl of 1% Trypan blue. The cell number was determined in optical microscope using Neubauer's chamber. The cellular viability was determined considering viable the light-refracting cells.
After determining the number of cells, 1 ml of the suspension, containing 1×10^7 cells, was injected by intraperitoneal route, on the right side of the rats to obtain liquid tumor (ascites).
Five days after injection, the rats with ascites were sacrificed and the ascetic fluid collected from the peritoneal cavity and placed in a test tube containing EDTA. The liquid was diluted 100 times with phosphate-buffered saline (PBS), pH 7.4. The cell count was done after dilution with Trypan blue, as described above. Tumor cell count was ascertained to 1×10^6 cells in 100 μl, by dilution with PBS. This number of cells was determined in preliminary tests for induction of cancer pain in rats. In this final cell number adjustment, the volume of antibiotic (Benzetacil®) added to the suspension (150,000 units of antibiotic/10 ml of suspension), was taken into consideration. The antibiotic was used in order to avoid microbial contamination. The cells were injected by intraplantar route into one of the rat hind paws. Control animals were injected with PBS into the contralateral paw, in the same experimental conditions.
Hyperalgesia, allodynia and spontaneous pain were determined before (BM-basal measurement) and 5 days after tumor cell injection, before (IM-initial measurement) and 2 hours after (FM-Final measurement) peptide administration.
The results were analyzed comparing the mean values of the basal and initial measurements, or of the initial and final measurements or, when determined, by comparing the mean values obtained in the different experimental groups (Tables 17, 18, 19).

[2] = system: spontaneous pain induced by constriction of the sciatic nerve; assay: spontaneous pain induced by constriction of the sciatic nerve (licking and lifting time); format: in vivo, rat; conditions: 5 μg/kg p.o.
Description: For the induction of neuropathic pain, surgery was performed in the sciatic nerve, in accordance with the method described by Bennett, G. J and Xie, Y. K. (Pain, 33:87-107, 1988). The animals were anesthetized with halothane. The sciatic nerve was exposed in the middle region of the thigh, moving away the femoral biceps muscle. Close to the trifurcation of the sciatic nerve, 7 mm of distance from the trifurcation, 4 loose ligations were performed (chromed catgut 4-0) around it, distant from each other in approximately 1 mm. The bindings were performed along the nerve, up to 4-5 mm from the initial point. The incision was sutured in layers, using silk suture thread number 4-0.
For the observation of the signs that characterize spontaneous pain, the animals were placed one by one, in a transparent plastic box. After the acclimatizing period of 30 minutes, the rats were observed during 10 minutes, determining the duration of the licking (in seconds) and lifting time. The licking and lifting activities, performed as part of the normal grooming behavior of animals, were not considered.

[3] = system: thermal nociception (hot plate 50° C.); assay: hot plate test; format: in vivo, mice; conditions: for latency time (reaction time), FM (s) ± S.E.M.: 2 hours after treatment; for latency time (reaction time), IM (s) ± S.E.M.: before treatment
Description: This test is used for evaluation of drugs that interfere with nociception in the Central Nervous System, as for example, morphine and derived products, since the thermal stimulus activates directly the nociceptor, avoiding tissue lesion and consequent inflammation. The data obtained in this test indicate that the antinociceptive effect of a compound is mainly due to a supraspinally integrated response.
This test was performed in accordance to the method described by Jacob, J. J. C. and Ramabadran, K. (Br. J. Pharmacol., 64:91-8, 1978). For this test, mice were placed on a metal surface kept at 50° C.±1. Results are expressed as the latency time (in seconds—s) to observe the licking of both anterior feet (reaction time). This test was applied before (initial measurement—IM) and 2 hours after the treatment of the animals (final measurement—FM) with saline (control) or with the synthetic peptide (1 and 3 μg/kg in 200 μl), orally. Each animal was considered as their own control. The results were analyzed comparing the mean values of the IM and FM or, when determined, by comparing the mean values obtained in the different experimental groups (Table 22).

[4] = 5th day after tumor implantation, 2 hours after peptide
[5] = 5th day after tumor implantation, before peptide
[6] = day 14 after surgery, before peptide, 10 min observation

In the case of “Xaa-Phe-Ser-Pro-Glu-Asn-Cys-Gln-Gly-Glu-Ser-Gln-Pro-Cys [SEQ ID NO: 2]”, the “Licking duration, FM” value [1, 4] was 1.6 ± 0.81 s, the “Lifting duration, FM” value [1, 4] was 25 ± 7.72 s and the “Licking duration, IM” value [1, 5] was 15 ± 1.46 s. The “Lifting duration, IM” value [1, 5] was 204 ± 30.74 s, the “Licking duration, BM” value ([1]; before injection of the tumor) was 0 ± 0.00 s and the “Lifting duration, BM” value ([1]; before injection of the tumor) was 0 ± 0.00 s. For the same substance, the “lifting time, FM 1 h” value ([2]; 1 h after peptide) was 2 ± 0.21 s, the “paw licking time, FM 1 h” value ([2]; 1 h after peptide) was 2 ± 0.21 s and the “lifting time, FM 3 h” value ([2]; 3 h after peptide) was 2 ± 0.26 s. The “paw licking time, FM 3 h” value ([2]; 3 h after peptide) was 2 ± 0.21 s, the “lifting time, FM 24 h” value ([2]; 24 h after peptide) was 2 ± 0.22 s and the “paw licking time, FM 24 h” value ([2]; 24 h after peptide) was 2 ± 0.39 s. The “lifting time, FM 48 h” value ([2]; 48 h after peptide) was 1.0 ± 0.16 s, the “paw licking time, FM 48 h” value ([2]; 48 h after peptide) was 1.5 ± 0.22 s and the “lifting time, FM 72 h” value ([2]; 72 h after peptide) was 2 ± 0.26 s. For the same substance, the “paw licking time, FM 72 h” value ([2]; 72 h after peptide) was 1.5 ± 0.22 s, the “lifting time, FM 96 h” value ([2]; 96 h after peptide) was 1.5 ± 0.16 s and the “paw licking time, FM 96 h” value ([2]; 96 h after peptide) was 21 ± 0.26 s. For the same substance, the “lifting time, FM 120” value ([2]; 120 h after peptide) was 95 ± 0.50 s, the “paw licking time, FM 120” value ([2]; 120 h after peptide) was 21 ± 0.38 s and the “lifting time, IM” value [2, 6] was 97 ± 0.43 s. For the same substance, the “paw licking time, IM” value [2, 6] was 22 ± 0.64 s, the “latency time (reaction time), FM (s) ± S.E.M.” value ([3]; 1 μg/kg p.o.) was 25 ± 0.68 s and the “latency time (reaction time), IM (s) ± S.E.M.” value ([3]; 1 μg/kg p.o.) was 18 ± 0.64 s. For the same substance, the “latency time (reaction time), FM (s) ± S.E.M.” value ([3]; 3 μg/kg p.o.) was 27 ± 1.06 s and the “latency time (reaction time), IM (s) ± S.E.M.” value ([3]; 3 μg/kg p.o.) was 22 ± 1.01 s.
